Measured values as given in patent US20060058346A1, “Novel enantiomers of etrahydroisoquinoline derivatives and theirpharmaceutically acceptable salts, their preparations and pharmaceutical compositions” (priority 2002, published 2006).
Like-named read-outs stand apart in the source and are kept apart here.

Experiments:
iNOS = assay: Expression of iNOS stimulated by LPS in macrophage cell, Western blotting; assay type: cell-based; details: LPS 1 μg/ml; 10, 50, 100 μM; FIG. 1
Procedure: Macrophage cells (RAW 264.7 cell) were plated on 100 mm culture dishes at a density of 1-2×10^5 cells and incubated in DMEM medium containing 10% fetal calf serum (heat-inactivated), 100 U/ml penicillin, and […] streptomycin in a CO2 incubator. When being grown to complete confluence, macrophage cell was inoculated in serum-free DMEM medium, and further incubated for about 24 hours. Thereafter, macrophage cells were stimulated in the presence of LPS (1 μg/ml) and each of the compounds represented by the formulas 3 to 8 for about 12 hours. Total protein was isolated from the macrophage cells. The isolated protein was quantified by using Bradford method. 10 μg of isolated protein was loaded in SDS-PAGE electroporesis gel. The said gel was transferred to PVDF membrane. Anti-iNOS antibody was added to the said gel, thereafter disposed at 4° C. overnight. Thereafter, secondary antibody was added to the said gel, reacted for 1 hour at the room temperature and sensitized using ECL. Expression of protein was quantified, compared to the expressed Actin.

LPS-injected rat [1] = assay: Survival in LPS-injected rat; assay type: in vivo
Procedure: Rats (25˜30 g, ICR), originated from NIH cancer institute (Bethesda, Md., USA) were purchased from Korea Test Animal Corp. (Unsung, Korea). 20 mg/kg of LPS was injected to abdominal cavity of the rat. Thereafter, survival was observed every 24 hours for seven days, to investigate effect of enantiomer on the survival in LPS-injected rat. The compound represented by formula 3 to 8 was administered 30 min before the LPS injection.

LPS-injected rat [2] = assay: Serum/plasma level of nitrate/nitrite (NOx) in LPS-injected rat; assay type: in vivo; details: 10 mg/kg compound; LPS 20 mg/kg
Procedure: The rats were divided into three groups; (1) LPS-injected group (LPS was administered to abdominal cavity in an amount of 20 mg/kg), (2) enantiomer-injected group (LPS+the compounds represented by formula 3 to 8 was administered to abdominal cavity) or (3) saline solution-injected group. After administration of LPS, the rats were anaesthetized with pentobarbital. The blood was collected from rats by using heart punching. The plasma level of nitrite was measured by using the nitrate reductase derived from Aspergillus species, where the nitrate was reduced by enzyme. Particularly, the plasma was diluted with distilled water in a ratio of 1:10. Analysis buffering solution (KH2PO4 50 Mm, NADPH 0.6 Mm, FAD 5 Mm and nitrate reductase 10 U/ml, Ph 5.5) was added to the said plasma. Thereafter, the reaction was accomplished at 37° C. for 30 min. The plasma level of nitrite was measured by using sodium nitrite as a standard, and Griess solution. Standard curve to nitrite was calculated from the result derived from incubation in analysis buffering solution.

Rat Thoracic Aortas = assay: Relaxation of rat thoracic aortas contracted by phenylephrine; details: for IC50: Rattus norvegicus, Endothelial cell, 0.1 μM phenylephrine contraction; for relaxation of contracted blood vessels: concentration-dependant manner
Procedure: Experimental group was divided into two groups, group containing endothelial cells of blood vessel and group not containing. Blood vessel of thoracic aortas was induced to contract by treatment with 0.1 μM of phenyleprine under tension of 1 g. Upon arriving at equilibrium, the enantiomers were added to an organ bath in a cumulative manner. Relaxation of thoracic aortas was recorded using a physiograph (Grass P7), calculating their response to the compounds with consideration of their added amount.

[3] = 15 mg/kg compound 30 min before LPS 20 mg/kg i.p.
[4] = group containing endothelial cells, read-out: IC50 (E+), concentration showing relaxation response of 50%
[5] = group not containing endothelial cells, read-out: IC50 (E−), concentration showing relaxation response of 50%
[6] = 30 mg/kg compound 30 min before LPS 20 mg/kg i.p.

Oc1ccc(C[C@@H]2NCCc3cc(O)c(O)cc32)cc1 [Formula 3, (S)-6,7-Dihydroxy-1-(p-hydroxyphenylmethyl)-1,2,3,4-tetrahydroisoquinoline]
expression of iNOS protein (iNOS): inhibited expression of iNOS protein strongly than R-enantiomer
survival after six days (LPS-injected rat [1]; [3]): 80%
survival at 30 mg/kg than 15 mg/kg (LPS-injected rat [1]; LPS 20 mg/kg): increased
plasma level of NOx (LPS-injected rat [2]): 29 ± 3 µM
IC50 (Rat Thoracic Aortas; [4]): 0.917 µM
IC50 (Rat Thoracic Aortas; [5]): 4.3 µM
relaxation of contracted blood vessels (Rat Thoracic Aortas): induced relaxation

Oc1ccc(C[C@H]2NCCc3cc(O)c(O)cc32)cc1 [Formula 4, (R)-6,7-Dihydroxy-1-(p-hydroxyphenylmethyl)-1,2,3,4-tetrahydroisoquinoline]
survival after six days (LPS-injected rat [1]; [3]): 60%
survival after six days (LPS-injected rat [1]; [6]): 67%
plasma level of NOx (LPS-injected rat [2]): 85 ± 7 µM
IC50 (Rat Thoracic Aortas; [4]): 4.64 µM
IC50 (Rat Thoracic Aortas; [5]): 7.7 µM
relaxation of contracted blood vessels (Rat Thoracic Aortas): induced relaxation

Oc1cc2c(cc1O)[C@H](Cc1cccc3ccccc13)NCC2 [Formula 5]
expression of iNOS protein (iNOS): inhibited expression of iNOS protein strongly than R-enantiomer
survival after six days (LPS-injected rat [1]; [3]): 100%
survival after six days (LPS-injected rat [1]; [6]): 100%
survival at 30 mg/kg than 15 mg/kg (LPS-injected rat [1]; LPS 20 mg/kg): increased
IC50 (Rat Thoracic Aortas; [4]): 0.714 µM
IC50 (Rat Thoracic Aortas; [5]): 5.5 µM
relaxation of contracted blood vessels (Rat Thoracic Aortas): induced relaxation

Oc1cc2c(cc1O)[C@@H](Cc1cccc3ccccc13)NCC2 [Formula 6, (R)-6,7-Dihydroxy-1-(α-naphthylmethyl)-1,2,3,4-tetrahydroisoquinoline]
survival after six days (LPS-injected rat [1]; [3]): 73%
survival after six days (LPS-injected rat [1]; [6]): 93%
IC50 (Rat Thoracic Aortas; [4]): 1.28 µM
IC50 (Rat Thoracic Aortas; [5]): 8.81 µM
relaxation of contracted blood vessels (Rat Thoracic Aortas): induced relaxation

Oc1cc2c(cc1O)[C@H](Cc1ccc3ccccc3c1)NCC2 [Formula 7, (S)-6,7-Dihydroxy-1-(β-naphthylmethyl)-1,2,3,4-tetrahydroisoquinoline]
expression of iNOS protein (iNOS): inhibited expression of iNOS protein strongly than R-enantiomer
survival after six days (LPS-injected rat [1]; [3]): 73%
decrease of survival at 30 mg/kg versus 15 mg/kg (LPS-injected rat [1]; LPS 20 mg/kg): 7%
IC50 (Rat Thoracic Aortas; [4]): 0.757 µM
IC50 (Rat Thoracic Aortas; [5]): 3.14 µM
relaxation of contracted blood vessels (Rat Thoracic Aortas): induced relaxation

Oc1cc2c(cc1O)[C@@H](Cc1ccc3ccccc3c1)NCC2 [Formula 8, (R)-6,7-Dihydroxy-1-(β-naphthylmethyl)-1,2,3,4-tetrahydroisoquinoline]
survival after six days (LPS-injected rat [1]; [6]): 72%
IC50 (Rat Thoracic Aortas; [4]): 1.95 µM
IC50 (Rat Thoracic Aortas; [5]): 7.54 µM
relaxation of contracted blood vessels (Rat Thoracic Aortas): induced relaxation
